The text below walks through data of US10758519B2, “UCP-1 expression promoter” (Kao Corporation, priority 2014, dated 2020).

Marks after values point to notes of the source that are not given here.

The nature of experiment [1]: Blood (serum) analysis, Example B6. The following applies: 14th day after operation, high-fat diet. The format is in vivo, mouse. The procedure: Each C57BL/6J (SLC, male, 7 weeks old) was allowed to freely eat High-Fat Diets with 60 cal % Fat (Research Diets, Inc.) and freely drink tap water. The body weight was measured every week. After 10 weeks, the mice were divided into 4 groups such that the average body weight was equivalent among the groups (n=8). The breeding environment was set to room temperature of 23±2° C., a humidity of 55±10%, and a light period of 7 a.m. to 7 p.m.
A 1/13 diluted solution of Somnopentyl was intraperitoneally administered at 10 mL/kg body weight, and then, an analgesic pentazocine was subcutaneously injected at 1 mg/kg body weight. After shaving of the back, an osmotic pump Alzet (DURECT Corp.) filled with the agents given below was implanted to thereby continuously administer the agents.
Group 2: PPARγ activator (rosiglitazone (Rosi); 5 mg/kg body weight/day)+Smad3 inhibitor (SIS3; 5 mg/kg body weight/day)
Group 3; β3 adrenaline receptor activator (CL316,243; 0.1 mg/kg body weight/day)
Group 4; PPARγ activator (rosiglitazone (Rosi); 5 mg/kg body weight/day)+Smad3 inhibitor (SIS3; 5 mg/kg body weight/day)+β3 adrenaline receptor activator (CL316,243; 0.1 mg/kg body weight/day)
Anatomy was performed on the 14th day after the operation. Blood was collected from the abdominal vena cava under isoflurane anesthesia. Then, each tissue shown below was collected and the weight of the tissue was measured. The significant difference was tested using a multiple comparison test by the Turkey-Kramer method (different letters indicate significant difference with P<0.05).
Serum from the blood obtained by the anatomy described above was subjected to componential analysis using commercially available measurement kits described below.
Adiponectin: adiponectin ELISA kit (Otsuka Pharmaceutical Co., Ltd.)
Insulin: insulin measurement kit (Morinaga Institute of Biological Science, Inc.)
Glucose: N-Assay Glu-UL (Nittobo Medical Co., Ltd.)
Total cholesterol: N-Assay L T-CHO-H (Nittobo Medical Co., Ltd.)
Triglyceride: N-Assay TG-H (Nittobo Medical Co., Ltd.)
NEFA: NEFA-HA Test Wako (Wako Pure Chemical Industries, Ltd.)

A further experiment concerns UCP-1. Kind of experiment: UCP-1 expression-inducing action in rat preadipocytes (quantitative PCR), Example B1. The class given is cell-based. How it is done:
The abdominal subcutaneous fat tissues of a Wistar-rat (male, 8 weeks old) were chopped with a surgical knife in a collagenase buffer (0.05% collagenase+4% BSA in Hank's buffer), and then, the chopped tissues were incubated at 37° C. for 15 minutes while shaken. After addition of an appropriate amount of a medium (high glucose DMEM (Invitrogen Corp.)+10% fetal, bovine serum (FBS) (AusGeneX PTY LTD.)+100 units/mL penicillin+[…] streptomycin (Invitrogen Corp.)), the obtained cell suspension was centrifuged at 1,000 rpm for 5 minutes. The supernatant was removed to obtain pellets (SVF: stromal vascular fraction). The SVF was suspended in a DMEM (+10% FBS+penicillin+streptomycin) medium, inoculated to a T-175 flask, cultured for 4 days, and used as preadipocytes.
The preadipocytes were inoculated to a 12-well plate coated with type I collagen. On the next day, the PPARγ activator (rosiglitazone (Rosi) (Wako Pure Chemical Industries, Ltd.), final concentration: 1 μM) and/or the Smad3 inhibitor (SIS3 (Sigma-Aldrich Corp.), final concentration: 10 μM) was added thereto. After culture for 7 days, the β3 adrenaline receptor activator (norepinephrine (NE) (Wako Pure Chemical Industries, Ltd.), final concentration: 1 μM)) was added thereto, and the cells were cultured for 2 hours, then washed with PBS, and recovered.
Total RNA was extracted according to a standard method using RNeasy Mini Kit (Qiagen N.V.). The total RNA was reverse-transcribed according to a standard method using High Capacity RNA-to-cDNA Kit (Applied Biosystems by Life Technologies).
Quantitative PCR was performed with the obtained cDNA (30 ng/well) as a template using 7500 Fast Real-Time PCR System (Applied Biosystems by Life Technologies). The expression level of each gene was corrected with a 36B4 gene expression level as an internal standard. Control excluded the agents described above.
The preadipocytes (n=3) obtained as described above were inoculated to a 12-well plate coated with type I collagen. On the next day, the PPARγ activator (rosiglitazone (Rosi) (Wako Pure Chemical Industries, Ltd.) or pioglitazone (Wako Pure Chemical Industries, Ltd.); 1 μM) and the Smad3 inhibitor (SIS3 (Sigma-Aldrich Corp.), 10 μM) were added thereto. After culture for 7 days, the cells were treated with the β3 adrenaline receptor activator (norepinephrine (Wako Pure Chemical Industries, Ltd.), 1 μM) for 2 hours and then recovered.
The preadipocytes were collected by trypsin treatment and transfected with siRNA against each Smad by electroporation using Neon transfection System. (Invitrogen Corp.). The preadipocytes (3×10^5 cells) were transfected with 50 pmol of the siRNA (Life Technologies) under conditions of 1150 V/20 ms/3 pulses, suspended in a DMEM (+10% FBS+100 units/mL penicillin+[…] streptomycin) medium, and then inoculated to a 12-well plate coated with type I collagen. After 6 hours, rosiglitazone was added thereto, and the cells were cultured with the medium replaced with fresh one every day. Four days after the inoculation, the cells were treated with norepinephrine for 2 hours and then recovered, and the UCP-1 expression level was analyzed by using RT-PCR. For a control, rosiglitazone, SIS3, and norepinephrine were added in the same approach as above to cells transfected with random siRNA, followed by analysis.
The preadipocytes (n=3) obtained as described above were inoculated to a 12-well plate coated with type I collagen. On the next day, the PPARγ activator (rosiglitazone (Rosi) (Wako Pure Chemical Industries, Ltd.), 10 μM) and the Smad3 inhibitor (SIS3 (Sigma-Aldrich Corp.) or SB431542 (Sigma-Aldrich Corp.); 10 μM) were added thereto. After culture for 7 days, the cells were treated with the β3 adrenaline receptor activator (norepinephrine (Wako Pure Chemical Industries, Ltd.), 1 μM) for 2 hours and then recovered.
The preadipocytes (n=3) were inoculated to a 12-well plate coated with type I collagen. […]

For another experiment, the target named is T1, human TGR5 (Homo sapiens, UniProt Q8TDU6).
T1 construct: expressed in transfected cells; host or cells: HEK293
T1 sequence (Q8TDU6 1-330): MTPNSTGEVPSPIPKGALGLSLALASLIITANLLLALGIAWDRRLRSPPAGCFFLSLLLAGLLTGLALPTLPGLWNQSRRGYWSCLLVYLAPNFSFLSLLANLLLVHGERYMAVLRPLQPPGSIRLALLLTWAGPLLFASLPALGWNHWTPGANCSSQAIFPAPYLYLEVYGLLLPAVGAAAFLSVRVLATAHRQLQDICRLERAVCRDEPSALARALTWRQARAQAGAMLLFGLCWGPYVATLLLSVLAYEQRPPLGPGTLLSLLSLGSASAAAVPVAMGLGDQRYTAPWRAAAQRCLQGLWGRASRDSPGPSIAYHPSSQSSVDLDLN
Kind of experiment: TGR5-activating action, CRE luciferase reporter in HEK293 cells, Reference Example 3. The class given is cell-based. The settings on record: material 0.001%, 12 to 18 hours; relative to control defined as 1; FIG. 22. How it is done:
HEK293 cells were inoculated at 1.0×10^5 cells/well to a 24-well plate and cultured in a DMEM medium containing 5% charcoal-treated FBS for 1 day. Then, the cells were transfected with 200 ng/well of a firefly luciferase reporter vector pGL4.29[luc2P/CRE/Hygro](Promega Corp.) containing a cAMP-responsive element (CRE), 40 ng/well of a human TGR5 expression vector hTGR5 (pcDNA3.1+), and 80 ng/well of phRL-TK (Renilla luciferase vector for gene, transfection efficiency correction) using Superfect transfection reagent (Qiagen N.V.). After 3 hours, the medium was replaced with a DMEM medium containing 5% charcoal-treated […]. After another 4 hours, each material shown in Table 4 below was added thereto at a final concentration of 0.001%. 12 to 18 hours thereafter, the luciferase activities were measured using DualGlo luciferase assay system (Promega Corp.). The TGR5-activating action was evaluated by correcting the firefly luciferase activity with the Renilla luciferase activity. The TGR5-activating action was indicated by relative values to the TGR5 activity in a control defined as 1.
On the technique in general: A reporter such as luciferase makes a cellular process visible.

The next experiment has as its system Smad3. Description: TGF-β stimulation-responsive Smad3 phosphorylation in HEK293 cells (Western blotting), Reference Example 1. The class given is cell-based. The settings on record: material 0.002% (luteolin 2 μM) or 0.01% (luteolin 10 μM), 2 hours, then 0.03 μg/mL TGF-β 20 minutes, FIG. 20. How it is done: HEK293 cells were inoculated at 3×10^5 cells/well to a 6-well dish and cultured overnight in DMEM containing 5% charcoal-treated FBS. On the next day, the medium was replaced with serum-free DMEM supplemented with each material shown in Table 2 below at a final concentration of 0.002% (luteolin: 2 μM) (low-concentration sample) or a final concentration of 0.01% (luteolin: 10 μM) (high-concentration sample). After 2 hours, 0.03 μg/mL TGF-β was added to each well, and the cells were incubated for 20 minutes. After removal of the medium, the resulting cells were washed with PBS and then recovered. The recovered cells were added with Lysis buffer and well homogenized. The cells were left to stand for 15 minutes on ice and then ultrasonically disrupted, and a supernatant centrifuged at 12,000 rpm at 4° C. for 10 minutes was obtained as a protein solution. A prepared sample containing […] of the protein and a ¼ volume of 4×SDS Sample buffer (Novagen) per lane was thermally denatured at 95° C. for 5 minutes and then used in SDS-PAGE. The protein was transferred to Immun-Blot™ PVDF Membrane (Bio-Red Laboratories, Inc.) and subjected to blocking and antibody reaction by the procedures given below, and α-Tubulin and Smad3 were detected together using ECL prime western blotting detection system (Amersham plc). […]

[2] abbreviates: Smad3 inhibitor 10 μM with rosiglitazone 10 μM (7 days) and norepinephrine 1 μM (2 hours), FIG. 8.
Where [3] appears, read: β3 adrenaline receptor activator 1 μM for 2 hours added to rosiglitazone 1 μM and SIS3 10 μM (7 days), FIG. 9.
Setting [4] is: PPARγ activator 1 μM added to SIS3 10 μM (7 days) and norepinephrine 1 μM (2 hours), FIG. 6.

In the case of `C[C@H](Cc1ccc2c(c1)OC(C(=O)[O-])(C(=O)[O-])O2)NC[C@H](O)c1cccc(Cl)c1.[Na+].[Na+]` [CL316,243], in experiment [1], the Glucose is listed as 274.9 ± 19.6^a mg/dl, the Insunlin is 3.05 ± 0.30^ab ng/ml, the NEFA was 0.92 ± 0.09^a mEq/l and the Total cholesterol was 151.1 ± 4.8^ac mg/dl. The Triglyceride in experiment [1] is 77.2 ± 7.8^ab mg/dl. Also, the Adiponectin in experiment [1] (Rosi 5, SIS3 5, CL316,243 0.1 mg/kg body weight/day) was 36.9 ± 6.9^ab μg/ml.

`NC(=O)c1ccc(-c2nc(-c3ccc4c(c3)OCO4)c(-c3ccccn3)[nH]2)cc1` [SB431542]: the “expression level of UCP-1” value in the experiment on UCP-1 (setting [2]) is recorded as “synergistically increased”.

As for `COc1cc2c(cc1OC)CN(C(=O)/C=C/c1c(-c3ccccc3)n(C)c3ncccc13)CC2` [SIS3, 6,7-dimethoxy-2-((2E)-3-(1-methyl-2-phenyl-1H-pyrrolo[2,3-b]pyridin-3-yl-prop-2-enoyl))-1,2,3,4-tetrahydroisoquinoline], the “expression level of UCP-1” value in the experiment with UCP-1 (setting [2]) is recorded as “synergistically increased”.

Consider `C[C@H](CCC(=O)O)[C@H]1CC[C@H]2[C@@H]3[C@H](O)C[C@@H]4C[C@H](O)CC[C@]4(C)[C@H]3C[C@H](O)[C@]12C` [cholic acid], for which the TGR5-activating action result on human TGR5 is given as “confirmed to have a TGR5-activating action”.

Take `CCCCC[C@H](O)CC(=O)CCc1ccc(O)c(OC)c1` [gingerol]: the TGR5-activating action result on human TGR5 is “confirmed to have a TGR5-activating action”.

For the compound `O=c1cc(-c2ccc(O)c(O)c2)oc2cc(O)cc(O)c12` [luteolin], the “TGF-β stimulation-responsive Smad3 hyperphosphorylation (Smad3-inhibiting action)” value with Smad3 is listed as “confirmed to have a Smad3-inhibiting action”.

In the case of `Nc1nc(CC(=O)Nc2ccc(CCNC[C@H](O)c3ccccc3)cc2)cs1` [mirabegron], the “expression level of UCP-1” value in the experiment on UCP-1 (setting [3]) was “synergistically increased”.

Consider `NC[C@H](O)c1ccc(O)c(O)c1` [norepinephrine], for which, in the experiment with UCP-1 (setting [3]), the “expression level of UCP-1” value is “synergistically increased”.

For the compound `CCc1ccc(CCOc2ccc(CC3SC(=O)NC3=O)cc2)nc1` (stereo not drawn) [pioglitazone], the “expression level of UCP-1” value in the experiment with UCP-1 (setting [4]) is listed as “synergistically increased”.

Turning to `CN(CCOc1ccc(CC2SC(=O)NC2=O)cc1)c1ccccn1` (stereo not drawn) [rosiglitazone], the “expression level of UCP-1” value with UCP-1 (setting [4]) was “synergistically increased”.
